Measurements from publication PMC3481155, “AhR activation underlies the CYP1A autoinduction by A-998679 in rats” (Frontiers in Genetics, 2012).
pEC50, pIC50: −log10 of the molar value.

Tests used:
AhR = molecular target: T1, AhR (Homo sapiens, UniProt P35869); experiment: AhR nuclear translocation assay in HepG2 cells; assay type: cell-based; settings: for AhR nuclear staining (% positive cells) 2 h: vehicle 15.6; for AhR nuclear staining (% positive cells) 24 h: vehicle 3.4
T1 construct: endogenous in cells; host or cells: HepG2
T1 sequence (P35869 11-848): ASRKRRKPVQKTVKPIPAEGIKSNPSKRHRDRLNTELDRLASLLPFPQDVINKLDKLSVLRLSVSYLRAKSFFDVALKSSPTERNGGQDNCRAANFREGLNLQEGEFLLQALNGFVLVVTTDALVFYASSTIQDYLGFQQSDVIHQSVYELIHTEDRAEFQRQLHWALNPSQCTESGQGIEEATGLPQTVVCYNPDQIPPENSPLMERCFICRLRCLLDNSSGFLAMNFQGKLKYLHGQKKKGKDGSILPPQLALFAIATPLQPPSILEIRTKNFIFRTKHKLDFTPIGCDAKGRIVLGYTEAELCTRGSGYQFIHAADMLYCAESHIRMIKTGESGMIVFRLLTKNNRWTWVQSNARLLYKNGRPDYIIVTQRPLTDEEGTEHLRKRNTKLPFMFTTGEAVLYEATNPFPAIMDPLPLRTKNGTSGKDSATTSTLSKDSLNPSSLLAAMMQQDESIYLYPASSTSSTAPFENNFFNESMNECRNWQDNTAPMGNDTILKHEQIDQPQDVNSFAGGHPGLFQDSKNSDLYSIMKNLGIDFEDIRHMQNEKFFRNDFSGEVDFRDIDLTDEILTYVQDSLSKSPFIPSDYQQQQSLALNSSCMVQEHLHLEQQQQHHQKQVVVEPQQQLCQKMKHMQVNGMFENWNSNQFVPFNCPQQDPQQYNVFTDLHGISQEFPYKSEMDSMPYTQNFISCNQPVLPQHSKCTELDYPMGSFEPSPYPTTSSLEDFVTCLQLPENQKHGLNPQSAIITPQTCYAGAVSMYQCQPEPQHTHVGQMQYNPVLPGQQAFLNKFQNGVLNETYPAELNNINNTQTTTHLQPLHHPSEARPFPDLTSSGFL
Description: HepG2 cells were plated in Lab-Tek II Chamber slides (Nalgene, Rochester, NY) at a seeding density of 50,000 cells/well. The cells were allowed to attach overnight and were treated for 2 h or 24 h with 10 or 40 μM A-998679, 2 μM 3-methylchloranthrene (3-MC) as a positive control, or 0.1% (v/v) DMSO vehicle. The cells were fixed in fresh 3% paraformaldehyde solution in PBS followed by a PBS wash, and were then permeabilized for 5 min using 0.2% Triton X-100 in PBS followed by another PBS wash. The cells were then incubated with blocking buffer consisting of 1% BSA/PBS solutions and immediately incubated with a 1:50 dilution of rabbit polyclonal antibody to AhR (Abcam, Cambridge, MA catalog# 63636) for 1 h at 37°C. Cells were then washed with PBS, re-blocked for 10 min, and stained with an Alexa 546 donkey anti-rabbit secondary antibody (diluted 1:200; Invitrogen Life Technologies) for 45 min at 37°C. The cells were then washed with PBS, stained with 0.5 μM Hoescht solution for 15 min, and again washed with PBS. The chamber slides were sealed and examined under the microscope. Images were acquired with a SPOT RT SE digital camera (Diagnostic Instruments, Sterling Heights, MI) mounted on a Leica (Wetzlar, Germany) DMIRE inverted florescence microscope using a 20× objective. Image acquisition was done using Metamorph® software (Molecular Devices, Sunnyvale, CA) and percent translocation of the AhR probe was quantitated using MetaXpress (Molecular Devices). Twenty microscope fields were evaluated per well (~3000–6000 cells/well).

CYP2D6 = molecular target: T2, CYP2D6 (Homo sapiens, UniProt P10635); experiment: CYP inhibition evaluation in human liver microsomes, CYP2D6 (dextromethorphan); assay type: in vitro ADME; settings: probe substrate dextromethorphan
T2 construct: from tissue; host or cells: human liver microsomes
Description: (§1) Incubations were performed in human liver microsomes using probe substrate concentrations similar to their corresponding Km values. Enzyme activity was evaluated in the presence of various concentrations of A-998679. The incubations consisted of the test article at varying concentrations (0–30 μM), probe substrate (concentration ~Km, see Table A2), human liver microsomal protein and 1 mM NADPH in 50 mM phosphate buffer at pH 7.4. Relative quantitation of the metabolites was obtained by LC-MS/MS using an ABSciex (Foster City, CA) API3000 or API4000 Qtrap hybrid linear ion trap mass spectrometer equipped with a TurboIonspray source using either PerkinElmer series 200 pumps or Agilent 1100 series pump with a Leap autosampler. Analytes were separated using a Phenomenex Prodigy ODS(3) 5 μm, 50 × 2.0 mm column at 50°C, eluted and detected under the specific conditions listed in Tables A3, A4, and A5. The analyte to internal standard peak area ratios were determined using Analyst 1.4 software (Applied Biosytems, Carlsbad, CA). The peak area ratios observed in the presence of test article were compared to the vehicle control in order to determine percent activity. To determine the IC50, the data were plotted as Log [dose] μM vs. % inhibition, and analyzed with a sigmoidal dose-response (variable slope) fitting equation. […]

CYP3A4 = molecular target: T3, CYP3A4 (Homo sapiens, UniProt P08684); experiment: CYP inhibition evaluation in human liver microsomes, CYP3A4 (midazolam); assay type: in vitro ADME; settings: probe substrate midazolam
T3 construct: from tissue; host or cells: human liver microsomes
Description: as §1

[1] = molecular target: T4, aryl hydrocarbon receptor (AhR) (Homo sapiens, UniProt P35869); experiment: AhR luciferase reporter assay in HepG2 cells; assay type: cell-based
T4 construct: endogenous in cells; host or cells: HepG2
T4 sequence (P35869 11-848): T1 sequence (P35869 11-848)
Description: HepG2 cells were transiently transfected overnight with the construct (1200 bp portion of the human CYP1A1 promoter region containing 2 copies of the functional consensus sequence for the DRE in luc2P luciferase vector (SwitchGear Genomics cat# 114555, Menlo Park, CA) using lipofectin (Invitrogen Life Technologies) at 500 ng construct per million cells. Following transfection, the cells were replated in a 96-well format and dosed for 24 h with 0.1% (v/v) DMSO vehicle, 3-MC at 0.05, 0.1, 0.5, 1, 5, 10 μM, and A-998679 at 1.5625, 3.125, 6.25, 12.5, 25, and 50 μM. Luminescence signal was generated using the Dual-Luciferase Reporter Assay System (Promega, Madison, WI) and detected with a Tecan Genios Pro reader (Männedorf, Switzerland).

T3 sequence (P08684 whole entry): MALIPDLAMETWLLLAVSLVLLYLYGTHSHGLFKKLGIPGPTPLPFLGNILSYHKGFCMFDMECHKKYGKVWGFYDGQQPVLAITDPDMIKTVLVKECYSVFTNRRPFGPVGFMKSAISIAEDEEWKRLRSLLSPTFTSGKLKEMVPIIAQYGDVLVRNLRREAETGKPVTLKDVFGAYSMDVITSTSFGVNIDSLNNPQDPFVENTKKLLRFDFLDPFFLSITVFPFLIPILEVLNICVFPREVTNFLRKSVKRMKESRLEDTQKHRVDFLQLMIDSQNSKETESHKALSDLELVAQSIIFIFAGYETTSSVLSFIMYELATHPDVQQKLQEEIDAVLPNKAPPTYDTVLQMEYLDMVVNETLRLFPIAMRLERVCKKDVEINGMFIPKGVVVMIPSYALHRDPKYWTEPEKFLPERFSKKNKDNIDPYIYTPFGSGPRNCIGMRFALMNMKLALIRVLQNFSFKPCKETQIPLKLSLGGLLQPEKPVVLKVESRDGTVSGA
T2 sequence (P10635 whole entry): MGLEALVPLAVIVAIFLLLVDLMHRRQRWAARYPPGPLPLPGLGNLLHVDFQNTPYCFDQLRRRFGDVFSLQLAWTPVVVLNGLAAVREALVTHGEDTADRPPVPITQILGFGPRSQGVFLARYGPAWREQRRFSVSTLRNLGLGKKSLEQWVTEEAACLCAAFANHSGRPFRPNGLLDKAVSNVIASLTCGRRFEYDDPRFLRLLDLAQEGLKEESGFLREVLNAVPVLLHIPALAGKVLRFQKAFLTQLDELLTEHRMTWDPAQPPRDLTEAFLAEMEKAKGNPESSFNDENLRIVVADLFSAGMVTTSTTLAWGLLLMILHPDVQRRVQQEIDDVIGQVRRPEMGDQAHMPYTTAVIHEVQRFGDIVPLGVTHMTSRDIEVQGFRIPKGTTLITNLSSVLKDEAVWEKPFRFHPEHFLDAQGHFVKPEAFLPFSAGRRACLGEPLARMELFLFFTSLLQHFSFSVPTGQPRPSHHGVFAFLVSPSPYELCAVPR

AhR nuclear staining (% positive cells) 2 h (AhR; 10 μM): 18.8 % positive cells | AhR nuclear staining (% positive cells) 24 h (AhR; 10 μM): 4.5 % positive cells | AhR nuclear staining (% positive cells) 2 h (AhR; 40 μM): 29.6 % positive cells | AhR nuclear staining (% positive cells) 24 h (AhR; 40 μM): 6.3 % positive cells | pIC50 (CYP2D6): < 4.52 | pIC50 (CYP3A4): < 4.52 | lowest level activating the DRE ([1]; gene reporter assay): ~ 6 μM | pEC50 ([1]; luciferase reporter with human DRE construct, 24 h, read-out: EC50, activation of AhR signaling): 4.79 | maximal increase over vehicle ([1]; luciferase reporter, 24 h): 56 fold
SMILES: N#Cc1cccc(-c2noc(-c3cccnc3)n2)c1 [A-998679, 3-(5-pyridin-3-yl-1,2,4-oxadiazol-3-yl) benzonitrile]
